# Values quoted from earlier work as cited in publication PMC11373361, “Expanding the inhibitor space of the WWP1 and WWP2 HECT E3 ligases” (Journal of Enzyme Inhibition and Medicinal Chemistry, 2024).
# Experiments:
# [1] = tested on: WWP1; set-up: method as in PMID 31097636; settings: cited from earlier work
# [2] = tested on: WWP2; set-up: method as in PMID 30207403; settings: cited from earlier work
smiles,measurement,setting,value
CCc1ccc(C=CC(=O)Nc2ccc(C(C)=O)cc2)o1 [Heclin],IC50,[1],6.9 µM
COCCn1c2nc(=O)n(-c3ccccc3)c(=O)c-2nc2ccccc21 [NSC-288387],IC50,[2],2.3 µM
